Data: ChEMBL document CHEMBL1151540, “1-Naphthylmethylphosphonic acid derivatives as osteoclastic acid phosphatase inhibitors” (Bioorg Med Chem Lett, 1995)

Tests used:
[1] = biological target: Tartrate-resistant acid phosphatase type 5 (Homo sapiens) (UniProt P13686); assay: Tested for inhibition of human Osteoclastic acid phosphatase (OAP), purified from the spleen of a patient with hairy cell leukemia at 100 uM
Mus musculus [2] = organism: Mus musculus; assay: Tested for percentage inhibition of PTH stimulated bone resorption in neonatal mouse calvaria placed in culture, at 10 uM concentration; format: functional
Mus musculus [3] = organism: Mus musculus; assay: Compound was tested for thymidine incorporation at 10 uM concentration; format: functional
Mus musculus [4] = organism: Mus musculus; assay: Compound was tested for the percentage inhibition of PTH stimulated bone resorption in neonatal mouse calvaria placed in culture, at 500 uM concentration; format: functional
Mus musculus [5] = organism: Mus musculus; assay: Compound was tested for the percentage inhibition of PTH stimulated bone resorption in neonatal mouse calvaria placed in culture, at 100 uM concentration; format: functional
Mus musculus [6] = organism: Mus musculus; assay: Compound was tested for thymidine incorporation at 500 uM concentration using [H3 thymidine] as radioligand; format: functional
Mus musculus [7] = organism: Mus musculus; assay: Compound was evaluated for thymidine incorporation at 1 uM concentration using [H3 thymidine] as radioligand; format: functional
Mus musculus [8] = organism: Mus musculus; assay: Tested for percentage inhibition of PTH stimulated bone resorption in neonatal mouse calvaria placed in culture, at 100 uM concentration; format: functional
Mus musculus [9] = organism: Mus musculus; assay: Compound was evaluated for thymidine incorporation at 10 uM concentration using [H3 thymidine] as radioligand; format: functional
Mus musculus [10] = organism: Mus musculus; assay: Tested for percentage inhibition of PTH stimulated bone resorption in neonatal mouse calvaria placed in culture, at 1 uM concentration; format: functional
Mus musculus [11] = organism: Mus musculus; assay: Compound was evaluated for thymidine incorporation at 100 uM concentration using [H3 thymidine] as radioligand; format: functional

Sequence of Tartrate-resistant acid phosphatase type 5 (Homo sapiens) (P13686 whole entry, looked up): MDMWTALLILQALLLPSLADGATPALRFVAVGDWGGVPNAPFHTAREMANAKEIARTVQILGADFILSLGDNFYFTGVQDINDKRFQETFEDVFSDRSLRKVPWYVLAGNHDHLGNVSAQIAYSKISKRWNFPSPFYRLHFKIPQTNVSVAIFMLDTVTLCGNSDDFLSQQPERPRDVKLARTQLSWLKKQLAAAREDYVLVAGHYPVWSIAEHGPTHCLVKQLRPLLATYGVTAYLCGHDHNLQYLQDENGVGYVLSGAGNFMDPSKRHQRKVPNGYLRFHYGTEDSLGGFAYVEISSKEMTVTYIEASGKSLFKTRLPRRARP

Q: With `O=P(O)(O)C(Cc1ccc(-c2ccccc2)cc1)c1cccc2ccccc12` (centres undefined) as the molecule, how does the inhibition [1] read?
A: Its inhibition is 100%.

Q: For `O=P(O)(O)C(Cl)(Cl)P(=O)(O)O` [CLODRONIC ACID], which Inhibition (Mus musculus [2]) is on record?
A: Its Inhibition is 95.6%.

Q: What about the Control (Mus musculus [3]) of the same molecule?
A: The Control was 104%.

Q: How did the inhibition [1] turn out when `O=P(O)(O)C(Cc1ccccc1)c1ccc2ccccc2c1` (centres undefined) was run?
A: The inhibition was 19%.

Q: How did the inhibition [1] turn out when `O=P(O)(O)C(Cc1ccccc1)c1cccc2ccccc12` (centres undefined) was run?
A: The inhibition was 92%.

Q: How did the inhibition [1] turn out when `O=P(O)(O)Cc1ccc2ccccc2c1` was run?
A: The inhibition was 4%.

Q: For `O=P(O)(O)C(O)c1cccc2ccccc12` (centres undefined), which inhibition [1] is on record?
A: Its inhibition is 10%.

Q: With `O=[N+]([O-])c1ccc(CC(c2cccc3ccccc23)P(=O)(O)O)cc1` (centres undefined) as the molecule, how does the inhibition [1] read?
A: The inhibition was 80%.

Q: `O=P(O)(O)C(Cc1ccc(Cl)cc1)(Cc1ccc(Cl)cc1)c1cccc2ccccc12` was tested. Which inhibition [1] did it give?
A: The inhibition was 87%.

Q: For `COc1ccc(CC(c2cccc3ccccc23)P(=O)(O)O)cc1` (centres undefined), which inhibition [1] is on record?
A: The inhibition was 73%.

Q: Which inhibition [1] does the source give for `O=P(O)(O)C(Cc1ccc(Cl)cc1)c1cccc2ccccc12` (centres undefined) here?
A: The inhibition was 94%.

Q: And the Inhibition (Mus musculus [4])?
A: The Inhibition was 101.8%.

Q: And the Inhibition (Mus musculus [5])?
A: Its Inhibition is 31.9%.

Q: What about the Control (Mus musculus [6]) of the same molecule?
A: The Control was 76%.

Q: How did the inhibition [1] turn out when `O=P(O)(O)C(Cc1ccccc1)c1ccccc1` (centres undefined) was run?
A: Its inhibition is 15%.

Q: Which inhibition [1] does the source give for `Cc1ccc2ccccc2c1C(CC1CCCCC1)P(=O)(O)O` (centres undefined) here?
A: The inhibition was 90%.

Q: With `O=P(O)(O)Cc1ccccc1` as the molecule, how does the inhibition [1] read?
A: Its inhibition is 0%.

Q: Which inhibition [1] does the source give for `O=P(O)(O)C(CC1CCCCC1)c1cccc2ccccc12` (centres undefined) here?
A: The inhibition was 73%.

Q: With `O=P(O)(O)Cc1cccc2ccccc12` as the molecule, how does the inhibition [1] read?
A: Its inhibition is 64%.

Q: How did the inhibition [1] turn out when `Cc1ccc2ccccc2c1CP(=O)(O)O` was run?
A: The inhibition was 20%.

Q: `Cc1ccc(CC(c2cccc3ccccc23)P(=O)(O)O)cc1` (centres undefined) was tested. Which inhibition [1] did it give?
A: Its inhibition is 75%.

Q: `O=C(c1ccccc1)C(C(=O)c1ccccc1)(c1cccc2ccccc12)P(=O)(O)O` was tested. Which inhibition [1] did it give?
A: Its inhibition is 96%.

Q: What does the source list for ORTHOVANADATE?
A: inhibition (Mus musculus [2]): 72.7%; Control (Mus musculus [7]): 127%; inhibition (Mus musculus [8]): 130%; Control (Mus musculus [9]): 94%; inhibition (Mus musculus [10]): 31.3%; Control (Mus musculus [11]): 0.4%

Q: For `O=C(c1ccc2ccccc2c1)C(c1cccc2ccccc12)P(=O)(O)O` (centres undefined), which inhibition [1] is on record?
A: Its inhibition is 95%.
